Experiments:
Assay in all cases: Monolayer growth inhibition assay (MTT/MTS)
Type in all cases: cell-based
[1] = test system: CL-11 colon cancer cell line
Description: (§1) The MTT is a colorimetric assay to determine the cell proliferation rate. The yellow tetrazolium MTT (3-(4, 5-dimethylthiazolyl-2)-2, 5-diphenyltetrazolium bromide) is reduced, by metabolically active cells, in part by the action of dehydrogenase enzymes, to generate reducing equivalents such as NADH and NADPH. The resulting intracellular purple formazan can be solubilized and quantified by spectrophotometric means. The signals produced is directly proportional to the cell numbers. Describing the MTT assay in detail, experiments were done using six-point or 9 point drug titrations in multi-well tissue culture dishes, with outer rows left empty. Cells were suspended in complete media at densities of between 10^3 and 10^4 cell/ml, respectively, and added per well. The appropriate medium (200 μl) was then added. Twenty-four hours later, 10 μl of MTS solution, were added to one plates to determine the activity at the time of compound addition (T0). This plate was incubated at 37° for 4 hours and the optical density was measured on a Molecular Devices Thermomax at 490 nm using the Softmax program. The T0 plate served as a reference for initial activity at the beginning of the experiment.
(§2) Compound addition began 24 hours after seeding, the same time as the T0 determination. Serial dilutions at 4-fold 2-fold, 1-fold, 0.5-fold, 0.25-fold and 0.125-fold of previously determined IC50 values of each compound were made in a 96-deep well plate with the highest concentrations on the edge of the plate. Each of the six dilutions were added in triplicate and complete medium was added to the empty outer rows, without cells. The compounds were added to the plates singly or in combination with Compound III (LBH589). The plates were incubated at 37° C. for 72 hours from seeding. The MTS solution was added (as for the T0 plate) and read four hours later. In order to analyze the data, the average value of media alone (background) was subtracted from each experimental well and the triplicate values were averaged for each compound dilution. The following formulas were used to calculate percent growth.
(§3) If X>T0, % Growth=100×(X−T0)/(GC−T0))
(§4) If X<T0, % Growth=100×(X−T0)/T0)
(§5) T0=average value of T0 minus background
(§6) GC=average value of untreated cells (in triplicate) minus background X=average value, of compound treated cells (in triplicate) minus background
(§7) IC50 the concentration of LBH589 required to inhibit cell growth by 50% and LD50s the concentration required to reduce cell number (kill cells) to 50% the original innoculum were determined. The “% Growth” was plotted against compound concentration and used to calculate IC50s and LD50s, employing the user-defined spline function in Microsoft Excel.
(§8) Colon cancer cell lines were treated with DMSO vehicle control or varying concentrations of LBH589 for 3 days. Cell proliferation was measured on the day of cell plating and on the third day post-treatment. IC50 and LD50 values were calculated as described above.

[2] = test system: Colo201 colon cancer cell line
Description: as §1, §2, §3, §4, §5, §6, §7, §8

[3] = test system: Colo205 colon cancer cell line
Description: as §1, §2, §3, §4, §5, §6, §7, §8

[4] = test system: Colo320 colon cancer cell line
Description: as §1, §2, §3, §4, §5, §6, §7, §8

[5] = test system: DLD-1 colon cancer cell line
Description: as §1, §2, §3, §4, §5, §6, §7, §8

[6] = test system: HCC2998 colon cancer cell line
Description: as §1, §2, §3, §4, §5, §6, §7, §8

[7] = test system: HCT116 Bax −/− colon cancer cell line
Description: as §1, §2, §3, §4, §5, §6, §7, §8

[8] = test system: HCT116 colon cancer cell line
Description: as §1, §2, §3, §4, §5, §6, §7, §8

[9] = test system: HT115 colon cancer cell line
Description: as §1, §2, §3, §4, §5, §6, §7, §8

[10] = test system: HT29 colon cancer cell line
Description: as §1, §2, §3, §4, §5, §6, §7, §8

[11] = test system: KM20L2 colon cancer cell line
Description: as §1, §2, §3, §4, §5, §6, §7, §8

[12] = test system: LS174T colon cancer cell line
Description: as §1, §2, §3, §4, §5, §6, §7, §8

[13] = test system: RKO colon cancer cell line
Description: as §1, §2, §3, §4, §5, §6, §7, §8

[14] = test system: SW1116 colon cancer cell line
Description: as §1, §2, §3, §4, §5, §6, §7, §8

[15] = test system: SW403 colon cancer cell line
Description: as §1, §2, §3, §4, §5, §6, §7, §8

[16] = test system: SW480 colon cancer cell line
Description: as §1, §2, §3, §4, §5, §6, §7, §8

[17] = test system: SW620 colon cancer cell line
Description: as §1, §2, §3, §4, §5, §6, §7, §8

[18] = test system: T84 colon cancer cell line
Description: as §1, §2, §3, §4, §5, §6, §7, §8

[19] = test system: WiDr colon cancer cell line
Description: as §1, §2, §3, §4, §5, §6, §7, §8

[20] = 3 days, concentration reducing cell number to 50% of original inoculum
[21] = Homo sapiens, 72 h, 3 days treatment

## Cc1[nH]c2ccccc2c1CCNCc1ccc(/C=C/C(=O)NO)cc1 [LBH589, N-hydroxy-3-[4-[[[2-(2-methyl-1H-indol-3-yl)ethyl]-amino]methyl]phenyl]-2E-2-propenamide]
[1]; 72 h, CL-11, 3 days treatment
  IC50: 3.54 nM
[1]; CL-11, 3 days, concentration reducing cell number to 50% of original inoculum
  LD50: 25.92 nM
[2]; Colo201, 3 days, concentration reducing cell number to 50% of original inoculum
  LD50: 20.14 nM
[2]; Homo sapiens, COLO 201, 72 h, Colo201, 3 days treatment
  IC50: 15.1 nM
[3]; Colo205, 3 days, concentration reducing cell number to 50% of original inoculum
  LD50: 33.52 nM
[3]; Homo sapiens, COLO 205, 72 h, Colo205, 3 days treatment
  IC50: 14.7 nM
[4]; Colo320, 3 days, concentration reducing cell number to 50% of original inoculum
  LD50: 82.90 nM
[4]; Homo sapiens, COLO 320, 72 h, Colo320, 3 days treatment
  IC50: 6.5 nM
[5]; DLD-1, 3 days, concentration reducing cell number to 50% of original inoculum
  LD50: 296.27 nM
[5]; Homo sapiens, 72 h, DLD-1, 3 days treatment
  IC50: 61.4 nM
[6]; HCC2998, 3 days, concentration reducing cell number to 50% of original inoculum
  LD50: 154.87 nM
[6]; Homo sapiens, HCC 2998, 72 h, HCC2998, 3 days treatment
  IC50: 29.7 nM
[7]; [20]
  LD50: >10 µM
[7]; Homo sapiens, HCT-116, 72 h, 3 days treatment
  IC50: 1.73 nM
[8]; HCT116, 3 days, concentration reducing cell number to 50% of original inoculum
  LD50: 51.72 nM
[8]; Homo sapiens, HCT-116, 72 h, HCT116, 3 days treatment
  IC50: 7.11 nM
[9]; 72 h, HT115, 3 days treatment
  IC50: 3.49 nM
[9]; HT115, 3 days, concentration reducing cell number to 50% of original inoculum
  LD50: 31.02 nM
[10]; HT29, 3 days, concentration reducing cell number to 50% of original inoculum
  LD50: 70.23 nM
[10]; Homo sapiens, HT-29, 72 h, HT29, 3 days treatment
  IC50: 2.83 nM
[11]; Homo sapiens, KM-20L2, 72 h, KM20L2, 3 days treatment
  IC50: 14.6 nM
[11]; KM20L2, 3 days, concentration reducing cell number to 50% of original inoculum
  LD50: 16.95 nM
[12]; [20]
  LD50: 87.41 nM
[12]; [21]
  IC50: 16.8 nM
[13]; 72 h, 3 days treatment
  IC50: 5.57 nM
[13]; [20]
  LD50: 2346.13 nM
[14]; Homo sapiens, SW 1116, 72 h, SW1116, 3 days treatment
  IC50: 2.28 nM
[14]; SW1116, 3 days, concentration reducing cell number to 50% of original inoculum
  LD50: 26.93 nM
[15]; Homo sapiens, SW-403, 72 h, SW403, 3 days treatment
  IC50: 2.03 nM
[15]; SW403, 3 days, concentration reducing cell number to 50% of original inoculum
  LD50: 9.84 nM
[16]; Homo sapiens, 72 h, SW480, 3 days treatment
  IC50: 1.48 nM
[16]; SW480, 3 days, concentration reducing cell number to 50% of original inoculum
  LD50: 6.90 nM
[17]; Homo sapiens, SW-620, 72 h, SW620, 3 days treatment
  IC50: 0.79 nM
[17]; SW620, 3 days, concentration reducing cell number to 50% of original inoculum
  LD50: 1.70 nM
[18]; 72 h, T84, 3 days treatment
  IC50: 2.16 nM
[18]; T84, 3 days, concentration reducing cell number to 50% of original inoculum
  LD50: 32.82 nM
[19]; [20]
  LD50: 41.86 nM
[19]; [21]
  IC50: 4.39 nM

Reference: patent US20100137398A1, “USE OF HDAC INHIBITORS FOR THE TREATMENT OF GASTROINTESTINAL CANCERS” (NOVARTIS AG, priority 2007, published 2010)
